Reference: publication PMC11200585, “Prospects for Prostate Cancer Chemotherapy: Cytotoxic Evaluation and Mechanistic Insights of Quinolinequinones with ADME/PK Profile” (Biomedicines, 2024)

Experiments:
Assay type in all cases: cell-based, human
T-47D = assay: NCI-60 one-dose screen (breast cancer); settings: 10 µM single dose, 48 h
Description: (§1) The obtained quinolinequinones were submitted to NCI, Bethesda, USA, and, as per standard protocol of NCI, all compounds were evaluated for their antiproliferative activity at single-dose assay (10 µM concentration in DMSO) on a panel of 60 cancer cell lines derived from leukemia, non-small-cell lung, colon, CNS, melanoma, ovarian, renal, prostate, and breast, as per protocol. Tested compounds were added to the microtiter culture plates followed by incubation for 48 h at 37 °C. Sulforhodamine B (SRB), a protein-binding dye, is used for endpoint determination. The percent of the growth of the treated cells was determined in comparison to the untreated control cells and the results of each tested compound were reported. Data from one-dose experiments pertain to the percentage growth at 10 μM [16, 17, 18].

BT-549 = assay: NCI-60 one-dose screen (breast cancer); settings: 10 µM single dose, 48 h
Description: as §1

HS 578T = assay: NCI-60 one-dose screen (breast cancer); settings: 10 µM single dose, 48 h
Description: as §1

MCF7 = assay: NCI-60 one-dose screen (breast cancer); settings: 10 µM single dose, 48 h
Description: as §1

MDA-MB-231/ATCC [1] = assay: NCI-60 one-dose screen (breast cancer); settings: 10 µM single dose, 48 h
Description: as §1

MDA-MB-468 = assay: NCI-60 one-dose screen (breast cancer); settings: 10 µM single dose, 48 h
Description: as §1

MDA-MB-231/ATCC [2] = assay: NCI-60 five-dose assay (breast cancer); settings: 48 h, SRB
PC-3 = assay: NCI-60 one-dose screen (prostate cancer); settings: 10 µM single dose
Description: as §1

DU-145 = assay: NCI-60 one-dose screen (prostate cancer); settings: 10 µM single dose, 48 h
Description: as §1

SW-620 [3] = assay: NCI-60 five-dose assay (colon cancer); settings: 48 h, SRB
SK-MEL-2 = assay: NCI-60 five-dose assay (melanoma); settings: 48 h, SRB
OVCAR-5 = assay: NCI-60 five-dose assay (ovarian cancer); settings: 48 h, SRB
KM12 = assay: NCI-60 one-dose screen (colon cancer); settings: 10 µM single dose, 48 h
Description: as §1

HCT-15 = assay: NCI-60 one-dose screen (colon cancer); settings: 10 µM single dose, 48 h
Description: as §1

COLO 205 = assay: NCI-60 one-dose screen (colon cancer); settings: 10 µM single dose, 48 h
Description: as §1

SW-620 [4] = assay: NCI-60 one-dose screen (colon cancer); settings: 10 µM single dose, 48 h
Description: as §1

HCC-2998 [5] = assay: NCI-60 one-dose screen (colon cancer); settings: 10 µM single dose
Description: as §1

HT29 = assay: NCI-60 one-dose screen (colon cancer)
Description: as §1

OVCAR-4 = assay: NCI-60 five-dose assay (ovarian cancer); settings: 48 h, SRB
MALME-3M = assay: NCI-60 five-dose assay (melanoma); settings: 48 h, SRB
SR = assay: NCI-60 five-dose assay (leukemia); settings: 48 h, SRB
SF-539 = assay: NCI-60 five-dose assay (CNS cancer); settings: 48 h, SRB
SK-OV-3 = assay: NCI-60 five-dose assay (ovarian cancer); settings: 48 h, SRB
A498 [6] = assay: NCI-60 five-dose assay (renal cancer); settings: 48 h, SRB
HCC-2998 [7] = assay: NCI-60 five-dose assay (colon cancer); settings: 48 h, SRB
UO-31 = assay: NCI-60 one-dose screen (renal cancer); settings: 10 µM single dose, 48 h
Description: as §1

TK-10 = assay: NCI-60 one-dose screen (renal cancer); settings: 10 µM single dose, 48 h
Description: as §1

ACHN [8] = assay: NCI-60 one-dose screen (renal cancer); settings: 10 µM single dose, 48 h
Description: as §1

A498 [9] = assay: NCI-60 one-dose screen (renal cancer); settings: 10 µM single dose, 48 h
Description: as §1

SN12C = assay: NCI-60 one-dose screen (renal cancer); settings: 10 µM single dose, 48 h
Description: as §1

786-0 [10] = assay: NCI-60 one-dose screen (renal cancer); settings: 10 µM single dose, 48 h
Description: as §1

HOP-62 = assay: NCI-60 five-dose assay (non-small cell lung cancer); settings: 48 h, SRB
786-0 [11] = assay: NCI-60 five-dose assay (renal cancer); settings: 48 h, SRB
HCT-116 = assay: NCI-60 five-dose assay (colon cancer); settings: 48 h, SRB
ACHN [12] = assay: NCI-60 five-dose assay (renal cancer); settings: 48 h, SRB
MOLT-4 = assay: NCI-60 five-dose assay (leukemia); settings: 48 h, SRB
LOX IMVI = assay: NCI-60 five-dose assay (melanoma); settings: 48 h, SRB
[13] = Homo sapiens, read-out: LC50 (the source's name)

`COc1cc(NC2=C(Cl)C(=O)c3nc(C)ccc3C2=O)cc(OC)c1` [AQQ5] was tested, and the “GP (growth percentage)” value (T-47D) was −56.01%, the “GP (growth percentage)” value (BT-549) was 24.11% and the “GP (growth percentage)” value (HS 578T) was −32.78%. The “GP (growth percentage)” value (MCF7) was −51.73%, the “GP (growth percentage)” value (MDA-MB-231/ATCC [1]) was −28.56% and the “GP (growth percentage)” value (MDA-MB-468) was −78.49%. For the same compound, the TGI (MDA-MB-231/ATCC [2]) was 3.08 µM, the GI50 (MDA-MB-231/ATCC [2]; Homo sapiens) was 1.46 µM and the LC50 (concentration killing 50% of cells) (MDA-MB-231/ATCC [2]; Homo sapiens) was 6.48 µM. For the same compound, the “GP (growth percentage)” value (PC-3; 48 h) was 27.99%, the inhibition at 10 µM (PC-3; Homo sapiens) was 72% and the “GP (growth percentage)” value (DU-145) was −92.99%. It also gave a TGI (SW-620 [3]) of 3.47 µM, a GI50 (SW-620 [3]; Homo sapiens) of 1.76 µM and an LC50 (SW-620 [3]; Homo sapiens) of 6.85 µM. The TGI (SK-MEL-2) was 3.10 µM, the GI50 (SK-MEL-2; Homo sapiens) was 1.59 µM and the CC50 (SK-MEL-2; [13]) was 6.03 µM. The TGI (OVCAR-5) was 5.79 µM, the GI50 (OVCAR-5; Homo sapiens) was 2.38 µM and the LC50 (lethal concentration 50%) (OVCAR-5; Homo sapiens) was 23.7 µM. The “GP (growth percentage)” value (KM12) was 39.30%, the “GP (growth percentage)” value (HCT-15) was −66.21% and the “GP (growth percentage)” value (COLO 205) was −80.52%. The “GP (growth percentage)” value (SW-620 [4]) was −90.16%, the “GP (growth percentage)” value (HCC-2998 [5]; 48 h) was 14.44% and the inhibition at 10 µM (HCC-2998 [5]; Homo sapiens) was 85.6%. The “GP (growth percentage)” value (HT29; 10 µM single dose, 48 h) was 24.91%, the inhibition at 10 µM (HT29; Homo sapiens, HT-29, 10 µM single dose) was 75.1% and the TGI (OVCAR-4) was 2.82 µM. It also gave a GI50 (OVCAR-4; Homo sapiens) of 1.4 µM, an LC50 (concentration killing 50% of cells) (OVCAR-4; Homo sapiens) of 5.66 µM and a TGI (MALME-3M) of 3.28 µM. The GI50 (MALME-3M; Homo sapiens) was 1.76 µM, the LC50 (MALME-3M; Homo sapiens) was 6.11 µM and the TGI (SR) was 2.43 µM. The GI50 (SR; Homo sapiens) was 0.35 µM, the CC50 (SR; [13]) was over 100 µM and the TGI (SF-539) was 3.22 µM. It also gave a GI50 (SF-539; Homo sapiens) of 1.79 µM, an LC50 (SF-539; Homo sapiens) of 5.78 µM and a TGI (SK-OV-3) of 25.1 µM. It also gave a GI50 (SK-OV-3; Homo sapiens) of 12.6 µM, an LC50 (50% net cell kill) (SK-OV-3; Homo sapiens) of 50.1 µM and a TGI (A498 [6]) of 11.4 µM. The GI50 (A498 [6]; Homo sapiens) was 2.35 µM, the LC50 (A498 [6]; Homo sapiens) was 33.8 µM and the TGI (HCC-2998 [7]) was 3.26 µM. For the same compound, the GI50 (HCC-2998 [7]; Homo sapiens) was 1.81 µM, the LC50 (concentration killing 50% of cells) (HCC-2998 [7]; Homo sapiens) was 5.88 µM and the “GP (growth percentage)” value (UO-31) was −94.65%. For the same compound, the “GP (growth percentage)” value (TK-10) was −50.07%, the “GP (growth percentage)” value (ACHN [8]) was −99.62% and the “GP (growth percentage)” value (A498 [9]) was 71.10%. For the same compound, the “GP (growth percentage)” value (SN12C) was −63.27%, the “GP (growth percentage)” value (786-0 [10]) was −59.47% and the TGI (HOP-62) was 14.1 µM. For the same compound, the GI50 (HOP-62; Homo sapiens) was 4.26 µM, the LC50 (concentration killing 50% of cells) (HOP-62; Homo sapiens) was 37.7 µM and the TGI (786-0 [11]) was 2.88 µM. For the same compound, the GI50 (786-0 [11]; Homo sapiens) was 1.52 µM, the LC50 (786-0 [11]; Homo sapiens) was 5.44 µM and the TGI (HCT-116) was 2.88 µM. The GI50 (HCT-116; Homo sapiens) was 1.53 µM, the LC50 (HCT-116; Homo sapiens) was 5.45 µM and the TGI (ACHN [12]) was 3.04 µM. The GI50 (ACHN [12]; Homo sapiens) was 1.67 µM, the LC50 (ACHN [12]; Homo sapiens) was 5.51 µM and the TGI (MOLT-4) was 7.00 µM. For the same compound, the GI50 (MOLT-4; Homo sapiens) was 1.5 µM, the LC50 (MOLT-4; Homo sapiens) was over 100 µM and the TGI (LOX IMVI) was 2.32 µM. For the same compound, the GI50 (LOX IMVI; Homo sapiens) was 1.1 µM and the LC50 (concentration killing 50% of cells) (LOX IMVI; Homo sapiens) was 4.88 µM.
